Laboratory results from patent US10703756B2, “Pyrrolo[2,3-D]pyrimidinyl, pyrrolo[2,3-B]pyrazinyl, pyrrolo[2,3-B]pyridinyl acrylamides and epoxides thereof” (Pfizer Inc., priority 2015, dated 2020).

Tests used:
[1] = molecular target: T1, JAK3 enzyme (Homo sapiens, UniProt P52333); experiment: JAK Caliper Enzyme Assay at 4 μM ATP; format: biochemical
T1 sequence (P52333 1-1124): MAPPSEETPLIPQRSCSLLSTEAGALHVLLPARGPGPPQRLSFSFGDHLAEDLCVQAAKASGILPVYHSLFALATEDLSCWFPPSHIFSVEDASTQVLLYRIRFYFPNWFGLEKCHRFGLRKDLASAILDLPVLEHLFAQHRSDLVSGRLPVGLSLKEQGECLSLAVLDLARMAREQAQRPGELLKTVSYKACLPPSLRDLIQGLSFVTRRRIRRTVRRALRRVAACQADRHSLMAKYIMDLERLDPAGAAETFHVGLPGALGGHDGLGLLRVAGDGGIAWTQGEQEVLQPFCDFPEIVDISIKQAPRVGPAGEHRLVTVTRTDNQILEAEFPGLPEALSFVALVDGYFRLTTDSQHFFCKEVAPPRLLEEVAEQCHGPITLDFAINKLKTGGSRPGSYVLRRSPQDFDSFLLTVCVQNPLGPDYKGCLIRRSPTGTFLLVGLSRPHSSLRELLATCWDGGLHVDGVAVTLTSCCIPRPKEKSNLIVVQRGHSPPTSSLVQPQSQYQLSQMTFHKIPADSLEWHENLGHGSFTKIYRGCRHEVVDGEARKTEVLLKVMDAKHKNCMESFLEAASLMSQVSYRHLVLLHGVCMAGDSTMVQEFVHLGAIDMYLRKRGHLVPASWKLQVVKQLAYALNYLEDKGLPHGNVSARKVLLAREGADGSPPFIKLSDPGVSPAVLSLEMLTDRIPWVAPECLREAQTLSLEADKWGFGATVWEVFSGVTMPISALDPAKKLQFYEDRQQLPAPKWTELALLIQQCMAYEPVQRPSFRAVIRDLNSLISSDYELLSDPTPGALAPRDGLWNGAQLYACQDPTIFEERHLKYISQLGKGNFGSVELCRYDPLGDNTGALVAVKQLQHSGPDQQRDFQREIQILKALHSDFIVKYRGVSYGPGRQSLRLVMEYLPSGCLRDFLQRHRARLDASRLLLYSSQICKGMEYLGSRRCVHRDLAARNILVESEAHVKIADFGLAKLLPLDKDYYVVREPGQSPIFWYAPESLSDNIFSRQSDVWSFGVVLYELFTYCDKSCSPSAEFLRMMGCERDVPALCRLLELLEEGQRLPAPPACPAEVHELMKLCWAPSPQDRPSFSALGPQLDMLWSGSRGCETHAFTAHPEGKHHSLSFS
Procedure, shortened: (§1)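 Test compounds were diluted in DMSO as an 11-point half-log series from a 600 μM top concentration (DMSO series, not final assay level). Enzyme amount and incubation time were set per enzyme prep to reach 20%-30% phosphorylation. Phosphorylated and unphosphorylated peptide were resolved by microfluidic separation.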

[2] = molecular target: T1, JAK3 enzyme; experiment: JAK Caliper Enzyme Assay at 1 mM ATP; format: biochemical
Procedure, shortened: as §1

[3] = Stability of JAK3 Covalent Inhibitors in Human Whole Blood; format: in vitro ADME; details: both sexes, 1 μM test compound, 37° C., 180 min incubation, read-out: Human blood stability t1/2
Procedure, shortened: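 Compound at 1 μM final incubated in duplicate at 37° C for 180 min in fresh K2-EDTA whole blood […]. Samples quenched in acetonitrile with internal standard; LC-MS/MS peak area ratios gave % parent remaining over time.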

[4] = system: IL-15 induced STAT5 phosphorylation in human whole blood lymphocytes; experiment: HWB IL-15 Induced STAT5 Phosphorylation Assay; format: cell-based; details: Lymphocyte, IL-15 final 50 ng/ml, read-out: HWB_IL15 pSTAT5 IC50
Procedure, shortened: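 Heparinised human whole blood preincubated with compound (0.2% DMSO final) 45 min at 37° C, then stimulated with human IL-15 (50 ng/ml final) for 15 min. After lyse/fix and Perm Buffer III permeabilisation, stained overnight at 4° C with AlexaFluor647 anti-phospho-STAT5; read by flow cytometry gated on total lymphocytes.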

SMILES	IC50 [1]	IC50 [2]	half-life at 1 μM [3]	IC50 [4]
C=CC(=O)N1CC(CF)CC(Nc2ncnc3[nH]ccc23)C1 (mixture of isomers) [Example 102, Cis-racemic-1-[3-(fluoromethyl-5-(7H-pyrrolo[2,3-d]pyrimidin-4-ylamino)piperidin-1-yl]prop-2-en-1-one]	0.0019 µM	0.142 µM	2.02 h	1.53 µM
C=CC(=O)N1CC[C@@H](Oc2cnc3[nH]cc(C(=O)N[C@@H](C)COC)c3n2)C[C@@H]1C (racemic) [Example 71, Trans-racemic-2-{[1-acryloyl-2-methylpiperidin-4-yl]oxy}-N-[(2S)-1-methoxypropan-2-yl]-5H-pyrrolo[2,3-b]pyrazine-7-carboxamide]	0.00113 µM	0.054 µM	5.15 h	0.931 µM
C=CC(=O)N1CC[C@@H](Oc2cnc3[nH]cc(C(=O)NCC)c3n2)C[C@@H]1C (racemic) [Example 77, Trans-racemic-2-{[1-acryloyl-2-methylpiperidin-4-yl]oxy}-N-ethyl-5H-pyrrolo[2,3-b]pyrazine-7-carboxamide]	0.000702 µM	0.115 µM	> 5.34 h	2.45 µM
C=CC(=O)N1C[C@H](Nc2ncnc3[nH]ccc23)CC[C@@H]1CNC(C)=O (racemic) [Example 88, rac-N-(((2R,5R)-5-((7H-pyrrolo[2,3-d]pyrimidin-4-yl)amino)-1-acryloylpiperidin-2-yl)methyl)acetamide]	0.0015 µM	0.137 µM	> 6 h	5.05 µM
C=CC(=O)N1CC[C@H](Nc2cnc3[nH]cc(C(=O)NCC(C)CC(F)(F)F)c3n2)[C@H](OC)C1 (mixture of isomers) [Example 328, Racemic-2-{[(3R,4S)-1-acryloyl-3-methoxypiperidin-4-yl]amino}-N-(4,4,4-trifluoro-2-methylbutyl)-5H-pyrrolo[2,3-b]pyrazine-7-carboxamide]	0.000578 µM	0.037 µM	4.2 h	0.287 µM
C=CC(=O)N1CCC[C@H](Nc2cnc3[nH]cc(C(=O)NCC)c3n2)C1 (single isomer, unassigned) [Example 36]	0.000875 µM	0.054 µM	> 6 h	1.09 µM
C=CC(=O)N1CC[C@@H](Oc2cnc3[nH]cc(C(=O)NCC)c3n2)[C@H](C)C1 (single isomer, unassigned) [Example 47]	0.00118 µM	0.087 µM	1.8 h	3.58 µM
C=CC(=O)N1CC[C@@H](Oc2cnc3[nH]cc(C(=O)N[C@@H](C)COC)c3n2)C[C@@H]1C (single isomer, unassigned) [Example 73]	0.000971 µM	0.033 µM	> 6 h	0.738 µM
C=CC(=O)N1CC[C@@H](Oc2cnc3[nH]cc(C(=O)NCC)c3n2)C[C@@H]1C (single isomer, unassigned) [Example 79]	0.000608 µM	0.077 µM	5.5 h	2.71 µM
C=CC(=O)N1C[C@@H](CF)C[C@@H](Nc2ncnc3[nH]ccc23)C1 (single isomer, unassigned) [Example 103]	0.000424 µM	0.038 µM	2.28 h	0.659 µM
C=CC(=O)N(C)C1CN(c2cnc3[nH]cc(C(=O)N[C@H](C)COC)c3n2)C1 [Example 86, 2-{3-[acryloyl(methyl)amino]azetidin-1-yl}-N-[(2R)-1-methoxypropan-2-yl]-5H-pyrrolo[2,3-b]pyrazine-7-carboxamide]	0.000515 µM	0.094 µM	1.67 h	2.92 µM

These reach a lower IC50 [1]. Values come first.

IC50 [1]	IC50 [2]	half-life at 1 μM [3]	IC50 [4]	SMILES
0.000408 µM	0.054 µM	2.3 h	1.07 µM	C=CC(=O)N1C[C@@H](CC#N)C[C@@H](Nc2ncnc3[nH]ccc23)C1 (racemic) [Example 105, Cis-racemic-[1-acryloyl-5-(7H-pyrrolo[2,3-d]pyrimidin-4-ylamino)piperidin-3-yl]acetonitrile]
0.000408 µM	0.05 µM	4.42 h	3.13 µM	C=CC(=O)N1CCC(N(C)c2cnc3[nH]cc(C(=O)NC(C)C)c3n2)CC1 [Example 64, 2-[(1-acryloylpiperidin-4-yl)(methyl)amino]-N-(propan-2-yl)-5H-pyrrolo[2,3-b]pyrazine-7-carboxamide]
0.0004 µM	0.05 µM	4.68 h	1.06 µM	C=CC(=O)N1CC[C@@H](Nc2cnc3[nH]cc(C(=O)NCC)c3n2)C[C@@H]1C (single isomer, unassigned) [Example 42]
0.000384 µM	0.024 µM	4.05 h	0.842 µM	C=CC(=O)N1CC[C@H](Nc2cnc3[nH]cc(C(=O)NCC)c3n2)C[C@H]1C (racemic) [Example 40, Trans-racemic-2-{[(2R,4S)-1-acryloyl-2-methylpiperidin-4-yl]amino}-N-ethyl-5H-pyrrolo[2,3-b]pyrazine-7-carboxamide]
0.000375 µM	0.051 µM	5.08 h	1.94 µM	C=CC(=O)N1CC[C@@H](Nc2cnc3[nH]cc(C(=O)NCC)c3n2)[C@@H](C)C1 (racemic) [Example 37, Cis-racemic-2-{[(3S,4R)-1-acryloyl-3-methylpiperidin-4-yl]amino}-N-ethyl-5H-pyrrolo[2,3-b]pyrazine-7-carboxamide]
0.00035 µM	0.047 µM	4.27 h	1.23 µM	C=CC(=O)N1CC[C@@H](Nc2cnc3[nH]cc(C(=O)NCC)c3n2)[C@H](C)C1 (single isomer, unassigned) [Example 44]
0.000328 µM	0.03 µM	4.38 h	1.16 µM	C=CC(=O)N1CC[C@@H](Nc2cnc3[nH]cc(C(=O)NCC)c3n2)[C@@H](C)C1 (single isomer, unassigned) [Example 38]
0.000272 µM	0.049 µM	> 6 h	1.39 µM	C=CC(=O)N1CCC(Oc2cnc3[nH]cc(C(=O)NC4CCCC4)c3n2)CC1 (racemic) [Example 204, Racemic-2-[(1-acryloylpiperidin-4-yl)oxy]-N-cyclopentyl-5H-pyrrolo[2,3-b]pyrazine-7-carboxamide]
0.000219 µM	0.028 µM	1.9 h	0.703 µM	C=CC(=O)N1C[C@H](COCCC#N)C[C@H](Nc2ncnc3[nH]ccc23)C1 [Example 101, 3-{[(3R,5S)-1-Acryloyl-5-(7H-pyrrolo[2,3-d]pyrimidin-4-ylamino)piperidin-3-yl]methoxy}propanenitrile]
0.000211 µM	0.018 µM	3.7 h	1.07 µM	C=CC(=O)N1CCC(Oc2cnc3[nH]cc(C(=O)NC(C)C4CC4)c3n2)CC1 (racemic) [Example 220, Racemic-2-[(1-acryloylpiperidin-4-yl)oxy]-N-(1-cyclopropylethyl)-5H-pyrrolo[2,3-b]pyrazine-7-carboxamide]
0.000159 µM	0.022 µM	3.75 h	0.515 µM	C=CC(=O)N1CC[C@H](Nc2cnc3[nH]cc(C(=O)NCC)c3n2)C[C@H]1C (single isomer, unassigned) [Example 41]
0.000125 µM	0.025 µM	1.87 h	0.287 µM	C=CC(=O)N1C[C@@H](CC#N)C[C@@H](Nc2ncnc3[nH]ccc23)C1 (single isomer, unassigned) [Example 106]
